# Experimental data as given in patent US20210215714A1, “COMPLEMENT ALTERNATIVE PATHWAY-ASSOCIATED NEPHROPATHY BIOMARKERS” (Achillion Pharmaceuticals, Inc., priority 2018, published 2021).
# “Also recorded” adds a separate entry of the source.
# Test system: Ba
# Assay: Phase 2a study: urinary Ba (MicroVue Ba Enzyme Immunoassay)
# Format: in vivo, human
# Settings: for Urine Ba / Ba/ALB / Ba/Cr: 200 mg TID; for Ba/ALB GEOMEAN / Ba/ALB MEAN / Ba/Cr GEOMEAN / Ba/Cr MEAN / Urine Ba MEAN / Urine Ba GEOMEAN: patients A-F
structure (smiles),measurement,setting,value
"CC(=O)c1nn(CC(=O)N2C[C@H](F)C[C@H]2C(=O)Nc2cccc(Br)n2)c2ccc(-c3cnc(C)nc3)cc12 [Compound 1, (2S,4R)-1-(2-(3-acetyl-5-(2-methylpyrimidin-5-yl)-1H-indazol-1-yl)acetyl)-N-(6-bromopyridin-2-yl)-4-fluoropyrrolidine-2-carboxamide]",Urine Ba,"Patient D, Day 21 Taper",18.6 ng/mL
same,Ba/ALB,"Patient D, Follow-Up Day 24",14.9 ng/mg
same,Ba/Cr,"Patient D, Follow-Up Day 24",4.2 µg/mmol
same,Urine Ba,"Patient D, Follow-Up Day 24",28.7 ng/mL
same,Ba/ALB,"Patient D, Follow-Up Day 28",10.8 ng/mg
same,Ba/Cr,"Patient D, Follow-Up Day 28",6.2 µg/mmol
same,Urine Ba,"Patient D, Follow-Up Day 28",30.0 ng/mL
same,Ba/ALB,"Patient D, Follow-Up Day 49",3.8 ng/mg
same,Ba/Cr,"Patient D, Follow-Up Day 49",2.4 µg/mmol
same,Urine Ba,"Patient D, Follow-Up Day 49",9.4 ng/mL
same,Ba/ALB,"Patient D, Screen",19.2 ng/mg
same,Ba/Cr,"Patient D, Screen",11.1 µg/mmol
same,Urine Ba,"Patient D, Screen",84.4 ng/mL
same,Ba/ALB,"Patient E, Day 1/0 Hour",33.5 ng/mg
same,Ba/Cr,"Patient E, Day 1/0 Hour",14.2 µg/mmol
same,Urine Ba,"Patient E, Day 1/0 Hour",252 ng/mL
same,Ba/ALB,"Patient E, Day 4",14.7 ng/mg
same,Ba/Cr,"Patient E, Day 4",6.2 µg/mmol
same,Urine Ba,"Patient E, Day 4",129 ng/mL
same,Ba/ALB,"Patient E, Day 7/0 Hour",17.3 ng/mg
same,Ba/Cr,"Patient E, Day 7/0 Hour",9.2 µg/mmol
same,Urine Ba,"Patient E, Day 7/0 Hour",142 ng/mL
same,Ba/ALB,"Patient E, Day 10",12.8 ng/mg
same,Ba/Cr,"Patient E, Day 10",8.0 µg/mmol
same,Urine Ba,"Patient E, Day 10",106 ng/mL
same,Ba/ALB,"Patient E, Day 14",6.9 ng/mg
same,Ba/Cr,"Patient E, Day 14",1.8 µg/mmol
same,Urine Ba,"Patient E, Day 14",41 ng/mL
same,Ba/ALB,"Patient E, Day 15 Taper",3.6 ng/mg
same,Ba/Cr,"Patient E, Day 15 Taper",1.2 µg/mmol
same,Urine Ba,"Patient E, Day 15 Taper",11 ng/mL
same,Ba/ALB,"Patient E, Day 16 Taper",7.2 ng/mg
same,Ba/Cr,"Patient E, Day 16 Taper",2.0 µg/mmol
same,Urine Ba,"Patient E, Day 16 Taper",20 ng/mL
same,Ba/ALB,"Patient E, Day 17 Taper",12.7 ng/mg
same,Ba/Cr,"Patient E, Day 17 Taper",6.0 µg/mmol
same,Urine Ba,"Patient E, Day 17 Taper",47 ng/mL
same,Ba/ALB,"Patient E, Day 21 Taper",21.6 ng/mg
same,Ba/Cr,"Patient E, Day 21 Taper",5.5 µg/mmol
same,Urine Ba,"Patient E, Day 21 Taper",42 ng/mL
same,Ba/ALB,"Patient E, Follow-Up Day 24",41.2 ng/mg
same,Ba/Cr,"Patient E, Follow-Up Day 24",12.5 µg/mmol
same,Urine Ba,"Patient E, Follow-Up Day 24",156 ng/mL
same,Ba/ALB,"Patient E, Follow-Up Day 28",46.1 ng/mg
same,Ba/Cr,"Patient E, Follow-Up Day 28",14.1 µg/mmol
same,Urine Ba,"Patient E, Follow-Up Day 28",234 ng/mL
same,Ba/ALB,"Patient E, Follow-Up Day 49",40.0 ng/mg
same,Ba/Cr,"Patient E, Follow-Up Day 49",13.1 µg/mmol
same,Urine Ba,"Patient E, Follow-Up Day 49",207 ng/mL
same,Ba/ALB,"Patient F, Day 1/0 Hour",25.9 ng/mg
same,Ba/Cr,"Patient F, Day 1/0 Hour",7.6 µg/mmol
same,Urine Ba,"Patient F, Day 1/0 Hour",74.9 ng/mL
same,Ba/ALB,"Patient F, Day 4",7.6 ng/mg
same,Ba/Cr,"Patient F, Day 4",1.2 µg/mmol
same,Urine Ba,"Patient F, Day 4",5.7 ng/mL
same,Ba/ALB,"Patient F, Day 7/0 Hour",5.7 ng/mg
same,Ba/Cr,"Patient F, Day 7/0 Hour",0.5 µg/mmol
same,Urine Ba,"Patient F, Day 7/0 Hour",2.1 ng/mL
same,Urine Ba,"Patient F, Day 10",2.1 ng/mL
same,Ba/ALB,"Patient F, Day 14",5.8 ng/mg
same,Ba/Cr,"Patient F, Day 14",1.1 µg/mmol
same,Urine Ba,"Patient F, Day 14",9.8 ng/mL
same,Ba/ALB,"Patient F, Day 15 Taper",0.6 ng/mg
same,Ba/Cr,"Patient F, Day 15 Taper",0.5 µg/mmol
same,Urine Ba,"Patient F, Day 15 Taper",2.8 ng/mL
same,Ba/ALB,"Patient F, Day 16 Taper",2.6 ng/mg
same,Ba/Cr,"Patient F, Day 16 Taper",0.6 µg/mmol
same,Urine Ba,"Patient F, Day 16 Taper",2.2 ng/mL
same,Ba/ALB,"Patient F, Day 17 Taper",1.6 ng/mg
same,Ba/Cr,"Patient F, Day 17 Taper",0.7 µg/mmol
same,Urine Ba,"Patient F, Day 17 Taper",6.9 ng/mL
same,Ba/ALB,"Patient F, Day 21 Taper",1.5 ng/mg
same,Ba/Cr,"Patient F, Day 21 Taper",0.5 µg/mmol
same,Urine Ba,"Patient F, Day 21 Taper",6.6 ng/mL
same,Ba/ALB,"Patient F, Follow-Up Day 24",1.5 ng/mg
same,Ba/Cr,"Patient F, Follow-Up Day 24",0.4 µg/mmol
same,Urine Ba,"Patient F, Follow-Up Day 24",2.2 ng/mL
same,Ba/ALB,"Patient F, Follow-Up Day 28",2.5 ng/mg
same,Ba/Cr,"Patient F, Follow-Up Day 28",0.6 µg/mmol
same,Urine Ba,"Patient F, Follow-Up Day 28",2.8 ng/mL
same,Ba/Cr,"Patient F, Follow-Up Day 49",8.2 µg/mmol
same,Urine Ba,"Patient F, Follow-Up Day 49",44.4 ng/mL
same,Ba/ALB GEOMEAN,Day 1/0 Hour,22.6 ng/mg
same,Ba/ALB MEAN,Day 1/0 Hour,53.4 ng/mg
same,Ba/Cr GEOMEAN,Day 1/0 Hour,5.7 µg/mmol
same,Ba/Cr MEAN,Day 1/0 Hour,26.7 µg/mmol
same,Urine Ba MEAN,Day 1/0 Hour,197 ng/mL
same,Ba/ALB GEOMEAN,Day 4,7.8 ng/mg
same,Ba/ALB MEAN,Day 4,13.8 ng/mg
same,Ba/Cr GEOMEAN,Day 4,1.4 µg/mmol
same,Ba/Cr MEAN,Day 4,3.8 µg/mmol
same,Urine Ba GEOMEAN,Day 4,9.1 ng/mL
same,Urine Ba MEAN,Day 4,52 ng/mL
same,Ba/ALB GEOMEAN,Day 7/0 Hour,8.9 ng/mg
same,Ba/ALB MEAN,Day 7/0 Hour,13.4 ng/mg
same,Ba/Cr GEOMEAN,Day 7/0 Hour,1.5 µg/mmol
same,Ba/Cr MEAN,Day 7/0 Hour,4.0 µg/mmol
same,Urine Ba GEOMEAN,Day 7/0 Hour,7.9 ng/mL
same,Urine Ba MEAN,Day 7/0 Hour,51 ng/mL
same,Urine Ba GEOMEAN,Day 10,5.0 ng/mL
same,Urine Ba MEAN,Day 10,28 ng/mL
same,Ba/ALB GEOMEAN,Day 15 Taper,4.9 ng/mg
same,Ba/ALB MEAN,Day 15 Taper,13.4 ng/mg
same,Ba/Cr GEOMEAN,Day 15 Taper,1.2 µg/mmol
same,Ba/Cr MEAN,Day 15 Taper,4.1 µg/mmol
same,Urine Ba GEOMEAN,Day 15 Taper,6.8 ng/mL
same,Urine Ba MEAN,Day 15 Taper,41 ng/mL
same,Ba/ALB GEOMEAN,Day 17 Taper,6.9 ng/mg
same,Ba/ALB MEAN,Day 17 Taper,15.4 ng/mg
same,Ba/Cr GEOMEAN,Day 17 Taper,1.6 µg/mmol
same,Ba/Cr MEAN,Day 17 Taper,4.2 µg/mmol
same,Urine Ba GEOMEAN,Day 17 Taper,9.5 ng/mL
same,Urine Ba MEAN,Day 17 Taper,41 ng/mL
same,Ba/ALB MEAN,Day 21 Taper,24.5 ng/mg
same,Ba/Cr GEOMEAN,Day 21 Taper,2.6 µg/mmol
same,Ba/Cr MEAN,Day 21 Taper,6.0 µg/mmol
same,Urine Ba GEOMEAN,Day 21 Taper,17.2 ng/mL
same,Urine Ba MEAN,Day 21 Taper,46 ng/mL
same,Ba/ALB MEAN,Follow-Up Day 24,38.5 ng/mg
same,Ba/Cr GEOMEAN,Follow-Up Day 24,3.0 µg/mmol
same,Ba/Cr MEAN,Follow-Up Day 24,11.6 µg/mmol
same,Urine Ba GEOMEAN,Follow-Up Day 24,18.4 ng/mL
same,Urine Ba MEAN,Follow-Up Day 24,92 ng/mL
same,Ba/ALB GEOMEAN,Follow-Up Day 28,17.4 ng/mg
same,Ba/ALB MEAN,Follow-Up Day 28,34.3 ng/mg
same,Ba/Cr GEOMEAN,Follow-Up Day 28,3.8 µg/mmol
same,Ba/Cr MEAN,Follow-Up Day 28,9.3 µg/mmol
same,Urine Ba GEOMEAN,Follow-Up Day 28,24.5 ng/mL
same,Urine Ba MEAN,Follow-Up Day 28,90 ng/mL
same,Ba/ALB GEOMEAN,Follow-Up Day 49,20.7 ng/mg
same,Ba/ALB MEAN,Follow-Up Day 49,143.0 ng/mg
same,Ba/Cr GEOMEAN,Follow-Up Day 49,3.9 µg/mmol
same,Ba/Cr MEAN,Follow-Up Day 49,22.6 µg/mmol
same,Urine Ba GEOMEAN,Follow-Up Day 49,27.2 ng/mL
same,Urine Ba MEAN,Follow-Up Day 49,334 ng/mL
same,Urinary Ba levels,two-week treatment,reduced significantly; also recorded: reduced in all patients
same,Urinary Ba levels normalized to urinary creatinine or albumin,two-week treatment,reduced significantly
